Measurements taken from patent publication US20250228239A1, “MOLECULES HAVING PESTICIDAL UTILITY, AND INTERMEDIATES, COMPOSITIONS, AND PROCESSES, RELATED THERETO” (priority 2024, published 2025).
Like-named read-outs stand apart in the source and are kept apart here.

Tests used:
Type in all cases: in vivo
[1] = system: Beet Armyworm (Spodoptera exigua, LAPHEG); experiment: Bioassays on Beet Armyworm (BAW), 128-well diet tray assay; details: Spodoptera exigua
Summary of the method: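 Percent larval mortality, averaged across eight wells, scored after five to seven days at 25° C. under 14:10 light-dark. Each well held one to five second instars feeding on diet dosed at 50 μg/cm^2 with compound from 90:10 acetone-water, solvent dried off.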

[2] = system: Yellow Fever Mosquito (Aedes aegypti, AEDSAE); details: for YFM rating: Table ABC / ABC-DP rating
Summary of the method: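 Mortality after 3 days at room temperature is the read-out, scored well by well and converted to a rating. Test molecules came from 4000 ppm stocks in DMSO, further diluted in 90:10 water/acetone, and were exposed to roughly 1-day-old larvae suspended in liver-powder water.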

[3] = system: Cabbage Looper (Trichoplusia ni, TRIPNI); experiment: Bioassays on Cabbage Looper (CL), 128-well diet tray assay; details: Trichoplusia ni
Summary of the method: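 Activity is mean percent mortality over eight wells of second-instar larvae exposed to diet treated at 50 μg/cm^2 for 5–7 days at 25° C.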

[4] = Table ABC: Biological Results, species BAW, read-out: BAW
[5] = Table ABC: Biological Results, species YFM
[6] = Table ABC: Biological Results, species CL, read-out: CL
[7] = Beet Armyworm, rating class, read-out: BAW
[8] = Yellow Fever Mosquito, rating class
[9] = Cabbage Looper, rating class, read-out: CL
[10] = Beet Armyworm, Table ABC / ABC-DP rating, read-out: BAW rating
[11] = Cabbage Looper, Table ABC / ABC-DP rating, read-out: CL rating

SMILES | pest or weed control at 50 µg/cm2 [1, 7] [%] | YFM [2, 8] | pest or weed control at 50 µg/cm2 [3, 9] [%] | pest or weed control at 50 µg/cm2 [1, 10] [%] | YFM rating ([2]; Yellow Fever Mosquito) | pest or weed control at 50 µg/cm2 [3, 11] [%] | further results
Nc1c(F)ccc(NC(=O)c2cc(NC(=O)[C@H]3[C@@H](c4cc(Cl)c(F)c(Cl)c4)C3(Cl)Cl)ccc2Cl)c1F (relative stereo) [F1182, cis-N-(3-Amino-2,4-difluorophenyl)-2-chloro-5-(2,2-dichloro-3-(3,5-dichloro-4-fluorophenyl)cyclopropane-1-carboxamido)benzamide] |  |  |  |  |  |  | pest or weed control at 50 µg/cm2 [1, 4]: 50 to 100%; YFM [2, 5]: A (80–100); pest or weed control at 50 µg/cm2 [3, 6]: 50 to 100%
CCOC(C)(C)C(=O)Nc1c(F)ccc(NC(=O)c2cc(NC(=O)[C@H]3[C@H](c4ccc(Cl)c(Cl)c4)C3(Cl)Cl)ccc2Cl)c1F [F1605, 2-Chloro-5-((1R,3R)-2,2-dichloro-3-(3,4-dichlorophenyl)cyclopropane-1-carboxamido)-N-(3-(2-ethoxy-2-methylpropanamido)-2,4-difluorophenyl)benzamide] | 50 to 100 | A (80–100) | 50 to 100 |  |  |  | 
O=C(Nc1ccc(F)cc1F)c1cc(NC(=O)[C@H]2[C@H](c3ccc(F)c(Cl)c3)C2(Cl)Cl)cc(C(F)(F)F)c1Cl (relative stereo) [F1215, trans-2-Chloro-5-(2,2-dichloro-3-(3-chloro-4-fluorophenyl)cyclopropane-1-carboxamido)-N-(2,4-difluorophenyl)-3-(trifluoromethyl)benzamide] |  |  |  |  |  |  | pest or weed control at 50 µg/cm2 [1, 4]: 50 to 100%; YFM [2, 5]: A (80–100); pest or weed control at 50 µg/cm2 [3, 6]: 50 to 100%
O=C(NNc1ccc(Cl)cn1)c1cc(NC(=O)[C@H]2[C@H](c3cc(Cl)cc(Cl)c3)C2(Cl)Cl)ccc1Cl (relative stereo) [F2504, trans-2,2-Dichloro-N-(4-chloro-3-(2-(5-chloropyridin-2-yl)hydrazine-1-carbonyl)phenyl)-3-(3,5-dichlorophenyl)cyclopropane-1-carboxamide] |  |  |  | 50 to 100 | A (80–100) | 50 to 100 | 
O=C(NCC(F)(F)F)c1cc(NC(=O)[C@H]2[C@H](c3cc(F)c(Cl)c(Cl)c3)C2(Cl)Cl)ccc1Cl (relative stereo) [F2006, trans-2-Chloro-5-(2,2-dichloro-3-(3,4-dichloro-5-fluorophenyl)cyclopropane-1-carboxamido)-N-(2,2,2-trifluoroethyl)benzamide] |  |  |  | 50 to 100 | A (80–100) | 50 to 100 | 
O=C(NCC(F)(F)F)c1cc(NC(=O)[C@H]2[C@@H](c3cc(F)c(F)c(Br)c3)C2(Cl)Cl)ccc1Cl (relative stereo) [F2004, cis-5-(3-(3-Bromo-4,5-difluorophenyl)-2,2-dichlorocyclopropane-1-carboxamido)-2-chloro-N-(2,2,2-trifluoroethyl)benzamide] |  |  |  | 50 to 100 | A (80–100) | 50 to 100 | 
O=C(Nc1cc(Cl)c(NC(=O)C(F)(F)F)c(Cl)c1)c1cc(NC(=O)[C@H]2[C@H](c3ccc(F)c(Cl)c3)C2(Cl)Cl)ccc1Cl (relative stereo) [F1368, trans-2-Chloro-5-(2,2-dichloro-3-(3-chloro-4-fluorophenyl)cyclopropane-1-carboxamido)-N-(3,5-dichloro-4-(2,2,2-trifluoroacetamido)phenyl)benzamide] |  |  |  |  |  |  | pest or weed control at 50 µg/cm2 [1, 4]: 50 to 100%; YFM [2, 5]: A (80–100); pest or weed control at 50 µg/cm2 [3, 6]: 50 to 100%
CCN(C(=O)OC(C)(C)C)c1c(F)ccc(NC(=O)c2cc(NC(=O)[C@H]3[C@H](c4ccc(F)c(C(F)(F)F)c4)C3(Cl)Cl)ccc2Cl)c1F [F1761, tert-Butyl (3-(2-chloro-5-((1R,3R)-2,2-dichloro-3-(4-fluoro-3-(trifluoromethyl)phenyl)cyclopropane-1-carboxamido)benzamido)-2,6-difluorophenyl)(ethyl)carbamate] | 50 to 100 | A (80–100) | 50 to 100 |  |  |  | 
CC(OC(F)(F)F)C(=O)Nc1c(F)ccc(NC(=O)c2cc(NC(=O)[C@H]3[C@H](c4cccc(C(F)(F)F)c4)C3(Cl)Cl)ccc2Cl)c1F (stereo partly drawn) [F1775, 2-Chloro-5-((1R,3R)-2,2-dichloro-3-(3-(trifluoromethyl)phenyl)cyclopropane-1-carboxamido)-N-(2,4-difluoro-3-(2-(trifluoromethoxy)propanamido)phenyl)benzamide] |  |  |  | 50 to 100 | A (80–100) | 50 to 100 | 
O=C(Nc1ccc(F)c(NC(=O)C(F)(F)F)c1F)c1cc(NC(=O)[C@H]2[C@H](c3ccc(Cl)c(Cl)c3)C2(Cl)Cl)cc(F)c1F [F1444, 5-((1R,3R)-2,2-Dichloro-3-(3,4-dichlorophenyl)cyclopropane-1-carboxamido)-N-(2,4-difluoro-3-(2,2,2-trifluoroacetamido)phenyl)-2,3-difluorobenzamide] | 50 to 100 | A (80–100) | 50 to 100 |  |  |  | 
CC(OCC1CC1)C(=O)Nc1c(F)ccc(NC(=O)c2cc(NC(=O)[C@H]3[C@H](c4ccc(F)c(C(F)(F)F)c4)C3(Cl)Cl)ccc2Cl)c1F (stereo partly drawn) [F1745, 2-Chloro-N-(3-(2-(cyclopropylmethoxy)propanamido)-2,4-difluorophenyl)-5-((1R,3R)-2,2-dichloro-3-(4-fluoro-3-(trifluoromethyl)phenyl)cyclopropane-1-carboxamido)benzamide] | 50 to 100 | A (80–100) | 50 to 100 |  |  |  | 
CCCCC(=O)Nc1c(F)ccc(NC(=O)c2cc(NC(=O)[C@H]3[C@H](c4ccc(F)c(C(F)(F)F)c4)C3(Cl)Cl)ccc2Cl)c1F [F1372, 2-Chloro-5-((1R,3R)-2,2-dichloro-3-(4-fluoro-3-(trifluoromethyl)phenyl)cyclopropane-1-carboxamido)-N-(2,4-difluoro-3-pentanamidophenyl)benzamide] |  |  |  |  |  |  | pest or weed control at 50 µg/cm2 [1, 4]: 50 to 100%; YFM [2, 5]: A (80–100); pest or weed control at 50 µg/cm2 [3, 6]: 50 to 100%
O=C(NCC(F)(F)F)c1cc(NC(=O)[C@H]2[C@H](c3cc(C(F)(F)F)ccc3Cl)C2(Cl)Cl)ccc1Cl (relative stereo) [F2001, trans-2-Chloro-5-(2,2-dichloro-3-(2-chloro-5-(trifluoromethyl)phenyl)-cyclopropane-1-carboxamido)-N-(2,2,2-trifluoroethyl)benzamide] |  |  |  | 50 to 100 | A (80–100) | 50 to 100 | 
CCOC(C)C(=O)Nc1c(F)ccc(NC(=O)c2cc(NC(=O)[C@H]3[C@H](c4ccc(Cl)c(C(F)(F)F)c4)C3(Cl)Cl)ccc2Cl)c1F (stereo partly drawn) [F1660, 2-Chloro-5-((1R,3R)-2,2-dichloro-3-(4-chloro-3-(trifluoromethyl)phenyl)cyclopropane-1-carboxamido)-N-(3-(2-ethoxypropanamido)-2,4-difluorophenyl)benzamide] | 50 to 100 | A (80–100) | 50 to 100 |  |  |  | 
O=C(Nc1ccc(F)c(NC(=O)C(F)F)c1F)c1cccc(NC(=O)[C@H]2[C@H](c3ccc(Cl)c(Cl)c3)C2(Cl)Cl)c1 [F1447, 3-((1R,3R)-2,2-Dichloro-3-(3,4-dichlorophenyl)cyclopropane-1-carboxamido)-N-(3-(2,2-difluoroacetamido)-2,4-difluorophenyl)benzamide] | 50 to 100 | A (80–100) | 50 to 100 |  |  |  | 
